For one assay, the target named is CK1ε (Homo sapiens (Human), UniProt P49674). Briefly: CK1ε kinase assay (Caliper LABCHIP electrophoretic separation of fluoresceinated peptide substrate and product). Format: biochemical. The settings on record: 200 pM CK1ε, 50 μM ATP, 1.5 μM peptide substrate, 22 hours at room temperature; read-out: CK1ε (IC50). The method, then: (§1) CK1ε and CK1δ Kinase Assays
(§2) The kinase assay was performed in V-bottom 384-well plates. […] The reaction was incubated at room temperature for 22 hours and terminated by adding 45 μl of 35 mM EDTA to each sample. The reaction mixture was analyzed on the Caliper LABCHIP®3000 (Caliper, Hopkinton, Mass.) by electrophoretic separation of the unphosphorylated substrate and phosphorylated product. […] Compounds were dissolved at 10 mM in dimethylsulfoxide (DMSO) and evaluated at eleven concentrations. IC50 values were derived by non-linear regression analysis.

Another assay addresses CK1δ (Homo sapiens (Human), UniProt P48730). Briefly: CK1δ kinase assay (Caliper LABCHIP electrophoretic separation of fluoresceinated peptide substrate and product). In kind it is biochemical. The note with it: 200 pM CK1δ, 50 μM ATP, 1.5 μM peptide substrate, 22 hours at room temperature; read-out: CK1δ (IC50). The method, then: as §1, §2

The values that follow come from patent US9598423B2 (BRISTOL-MYERS SQUIBB COMPANY, priority 2013, dated 2017).

Chain of CK1δ (P48730 whole entry): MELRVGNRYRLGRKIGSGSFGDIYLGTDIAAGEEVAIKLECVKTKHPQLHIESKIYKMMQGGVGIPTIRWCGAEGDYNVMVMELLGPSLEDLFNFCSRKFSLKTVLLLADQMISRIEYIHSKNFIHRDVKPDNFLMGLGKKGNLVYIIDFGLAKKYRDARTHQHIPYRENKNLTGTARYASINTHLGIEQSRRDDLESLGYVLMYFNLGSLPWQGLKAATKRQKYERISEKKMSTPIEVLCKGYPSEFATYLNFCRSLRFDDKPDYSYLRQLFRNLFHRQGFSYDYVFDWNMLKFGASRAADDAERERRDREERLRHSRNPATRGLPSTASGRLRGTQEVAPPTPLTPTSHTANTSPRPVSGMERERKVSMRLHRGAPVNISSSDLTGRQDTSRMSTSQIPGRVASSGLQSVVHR
Chain of CK1ε (P49674 whole entry): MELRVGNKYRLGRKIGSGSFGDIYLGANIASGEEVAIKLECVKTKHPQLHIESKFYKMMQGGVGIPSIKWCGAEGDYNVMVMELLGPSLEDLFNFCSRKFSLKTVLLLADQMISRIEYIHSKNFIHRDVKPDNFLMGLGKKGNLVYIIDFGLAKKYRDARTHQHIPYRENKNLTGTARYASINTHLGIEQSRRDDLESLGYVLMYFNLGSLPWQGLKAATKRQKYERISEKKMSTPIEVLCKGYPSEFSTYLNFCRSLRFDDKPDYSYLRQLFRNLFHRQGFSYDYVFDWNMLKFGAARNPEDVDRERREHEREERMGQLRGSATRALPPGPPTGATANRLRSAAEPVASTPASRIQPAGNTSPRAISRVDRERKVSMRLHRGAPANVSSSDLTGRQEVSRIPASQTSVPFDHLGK

For the compound `N#Cc1ccc(NC(=O)N2CCn3nc(-c4cccc(Cl)c4)c(C(N)=O)c3C2)cc1OC(F)(F)F` [Compound A39, 2-(3-Chlorophenyl)-N^5-(4-cyano-3-(trifluoromethoxy)phenyl)-6,7-dihydropyrazolo[1,5-a]pyrazine-3,5(4H)-dicarboxamide], the IC50 on CK1ε and on CK1δ was 0.01 to 10 nM in each case. Take `CS(=O)(=O)c1ccc(-c2nn3c(c2C(N)=O)CN(C(=O)Nc2ccc(C#N)cc2)CC3)cc1` [Compound 290, N^5-(4-Cyanophenyl)-2-(4-(methylsulfonyl)phenyl)-6,7-dihydropyrazolo[1,5-a] pyrazine-3,5(4H)-dicarboxamide]: the IC50 at CK1ε and at CK1δ was 100 to 2000 nM each time.

Regarding `CC1Cn2nc(-c3ccc(F)c(Cl)c3)c(C(N)=O)c2CN1C(=O)Nc1ccc(C#N)cc1` (single isomer, unassigned) [Compound 330, 2-(3-Chloro-4-fluorophenyl)-N^5-(4-cyanophenyl)-6-methyl-6,7-dihydropyrazolo[1,5-a]pyrazine-3,5(4H)-dicarboxamide], the IC50 at CK1ε and on CK1δ was 0.01 to 10 nM each time. `CSc1cccc(-c2nn3c(c2C(N)=O)CN(C(=O)Nc2ccc(C#N)cc2)CC3)c1` [Compound 281, N^5-(4-Cyanophenyl)-2-(3-(methylthio)phenyl)-6,7-dihydropyrazolo[1,5-a] pyrazine-3,5(4H)-dicarboxamide]: the IC50 at CK1ε and on CK1δ was 0.01 to 10 nM in each case.

With `Cc1cc(NC(=O)N2Cc3c(C(N)=O)c(-c4ccc(F)c(Cl)c4)nn3CC23CC3)ccc1C#N` [Compound 344, 2′-(3-Chloro-4-fluorophenyl)-N^5′-(4-cyano-3-methylphenyl)-4′H-spiro[cyclopropane-1,6′-pyrazolo[1,5-a]pyrazine]-3′,5′(7′H)-dicarboxamide], the IC50 on CK1ε and at CK1δ was 0.01 to 10 nM in each case. Regarding `Cc1ccc(-c2nn3c(c2C(N)=O)CN(C(=O)Nc2ccc4c(c2)OC(F)(F)O4)CC3)cc1Cl` [Compound 250, 2-(3-Chloro-4-methylphenyl)-N^5-(2,2-difluorobenzo[d][1,3]dioxol-5-yl)-6,7-dihydropyrazolo[1,5-a] pyrazine-3,5(4H)-dicarboxamide], the IC50 on CK1ε and at CK1δ was 0.01 to 10 nM each time. For `Cn1ncc2c(F)cc(-c3nn4c(c3C(N)=O)CN(C(=O)Nc3ccc(C#N)cc3)CC4)cc21` [Compound 326, N^5-(4-Cyanophenyl)-2-(4-fluoro-1-methyl-1H-indazol-6-yl)-6,7-dihydropyrazolo[1,5-a]pyrazine-3,5(4H)-dicarboxamide], the IC50 at CK1ε and on CK1δ was 0.01 to 10 nM throughout. For the compound `CC1Cn2nc(-c3cccc(Cl)c3)c(C(N)=O)c2CN1C(=O)Nc1ccc(C#N)cc1` (single isomer, unassigned) [Compound 331, 2-(3-Chlorophenyl)-N^5-(4-cyanophenyl)-6-methyl-6,7-dihydropyrazolo[1,5-a]pyrazine-3,5(4H)-dicarboxamide], the IC50 at CK1ε and on CK1δ was 0.01 to 10 nM throughout. For `COc1cc(Cl)cc(-c2nn3c(c2C(N)=O)CN(C(=O)NC(C)(C)C)CC3)c1` [Compound 152, N^5-(tert-Butyl)-2-(3-chloro-5-methoxyphenyl)-6,7-dihydropyrazolo[1,5-a]pyrazine-3,5(4H)-dicarboxamide], the IC50 on CK1ε and on CK1δ was 0.01 to 10 nM throughout. For the compound `Cc1cc(F)cc(-c2nn3c(c2C(N)=O)CN(C(=O)Nc2ccc4ncsc4c2)CC3)c1` [Compound 225, N^5-(Benzo[d]thiazol-6-yl)-2-(3-fluoro-5-methylphenyl)-6,7-dihydropyrazolo[1,5-a] pyrazine-3,5(4H)-dicarboxamide], the IC50 on CK1ε and at CK1δ was 0.01 to 10 nM in each case. Consider `N#Cc1ccc(NC(=O)N2Cc3c(C(N)=O)c(-c4ccc(F)c(Cl)c4)nn3C3(C2)CC(F)(F)C3)cc1` [Compound A36, 2′-(3-Chloro-4-fluorophenyl)-N^5′-(4-cyanophenyl)-3,3-difluoro-4′H-spiro[cyclobutane-1,7′-pyrazolo[1,5-a]pyrazine]-3′,5′(6′H)-dicarboxamide], for which the IC50 at CK1ε and on CK1δ was 0.01 to 10 nM throughout. For the compound `CC(C)(O)[C@@H]1CN(C(=O)Nc2ccc(C#N)cc2)Cc2c(C(N)=O)c(-c3ccc(Cl)c(Cl)c3)nn21` (single isomer, unassigned) [Compound A34, N^5-(4-Cyanophenyl)-2-(3,4-dichlorophenyl)-7-(2-hydroxypropan-2-yl)-6,7-dihydropyrazolo[1,5-a]pyrazine-3,5(4H)-dicarboxamide], the IC50 on CK1ε and on CK1δ was 0.01 to 10 nM in each case. In the case of `CC(C)(C)NC(=O)N1CCn2nc(-c3ccc(F)cc3F)c(C(N)=O)c2C1` [Compound 124, N^5-(tert-Butyl)-2-(2,4-difluorophenyl)-6,7-dihydropyrazolo[1,5-a]pyrazine-3,5(4H)-dicarboxamide], the IC50 at CK1ε and at CK1δ was 100 to 2000 nM in each case. With `N#Cc1ccc(NC(=O)N2Cc3c(C(N)=O)c(-c4ccc(F)c(Cl)c4)nn3CC2C2CC2)cc1` (single isomer, unassigned) [Compound 342], the IC50 at CK1ε and at CK1δ was 0.01 to 10 nM throughout. For `COc1cc(F)cc(-c2nn3c(c2C(N)=O)CN(C(=O)NC(C)(C)C)CC3)c1` [Compound 137, N^5-(tert-Butyl)-2-(3-fiuoro-5-methoxyphenyl)-6,7-dihydropyrazolo[1,5-a]pyrazine-3,5(4H)-dicarboxamide], the IC50 on CK1δ was 0.01 to 10 nM. On the same count and under the same terms, the result for `CC(C)(C)NC(=O)N1CCn2nc(-c3cc(F)cc(F)c3)c(C(N)=O)c2C1` [Compound 105, N^5-(tert-Butyl)-2-(3,5-difluorophenyl)-6,7-dihydropyrazolo[1,5-a]pyrazine-3,5(4H)-dicarboxamide] reads 0.01 to 10 nM. Still for that read-out and setting: the result for `NC(=O)c1c(-c2cccc(F)c2)nn2c1CN(C(=O)Nc1ccc(OC(F)F)cc1)CC2` [Compound 89, N^5-(4-(Difluoromethoxy)phenyl)-2-(3-fluorophenyl)-6,7-dihydropyrazolo[1,5-a]pyrazine-3,5(4H)-dicarboxamide] reads 0.01 to 10 nM; that for `NC(=O)c1c(-c2cccc(F)c2)nn2c1CN(C(=O)Nc1ccc(F)nc1)CC2` [Compound 87, 2-(3-Fluorophenyl)-N^5-(6-fluoropyridin-3-yl)-6,7-dihydropyrazolo[1,5-a]pyrazine-3,5(4H)-dicarboxamide], 0.01 to 10 nM; that for `N#Cc1ccc(NC(=O)N2Cc3c(C(N)=O)c(-c4ccc(F)c(Cl)c4)nn3C(C(F)F)C2)cc1Cl` (stereo not drawn) [Compound A19, N^5-(3-Chloro-4-cyanophenyl)-2-(3-chloro-4-fluorophenyl)-7-(difluoromethyl)-6,7-dihydropyrazolo[1,5-a]pyrazine-3,5(4H)-dicarboxamide], 0.01 to 10 nM. The same measure, in the same setting: the result for `NC(=O)c1c(-c2cccc(F)c2)nn2c1CN(C(=O)Nc1cccnc1)CC2` [Compound 68, 2-(3-Fluorophenyl)-N^5-(pyridin-3-yl)-6,7-dihydropyrazolo[1,5-a]pyrazine-3,5(4H)-dicarboxamide] reads 0.01 to 10 nM; that for `NC(=O)c1c(-c2cccc(F)c2)nn2c1CN(C(=O)Nc1cc(Cl)ccc1F)CC2` [Compound 33, N^5-(5-Chloro-2-fluorophenyl)-2-(3-fluorophenyl)-6,7-dihydropyrazolo[1,5-a]pyrazine-3,5(4H)-dicarboxamide], 0.01 to 10 nM.

Take `CSc1cccc(-c2nn3c(c2C(N)=O)CN(C(=O)NC(C)(C)C)CC3)c1` [Compound 150, N^5-(tert-Butyl)-2-(3-(methylthio)phenyl)-6,7-dihydropyrazolo[1,5-a]pyrazine-3,5(4H)-dicarboxamide]: at CK1δ, the half-maximal inhibitory concentration (IC50) lay in the range of 0.01 to 10 nM. Same read-out and setting: as for `CC(=O)N1CCC(NC(=O)N2CCn3nc(-c4cccc(F)c4)c(C(N)=O)c3C2)CC1` [Compound 97], the figure is 0.01 to 10 nM; as for `CC(C)(NC(=O)N1CCn2nc(-c3cccc(F)c3)c(C(N)=O)c2C1)c1ccc(F)cc1` [Compound 17, 2-(3-Fluorophenyl)-N^5-(2-(4-fluorophenyl)propan-2-yl)-6,7-dihydropyrazolo[1,5-a]pyrazine-3,5(4H)-dicarboxamide], 0.01 to 10 nM; as for `CC(C)(NC(=O)N1CCn2nc(-c3cccc(F)c3)c(C(N)=O)c2C1)c1ccccc1` [Compound 25, 2-(3-Fluorophenyl)-N^5-(2-phenylpropan-2-yl)-6,7-dihydropyrazolo[1,5-a]pyrazine-3,5(4H)-dicarboxamide], 0.01 to 10 nM. The same measure, in the same setting: the result for `NC(=O)c1c(-c2cccc(F)c2)nn2c1CN(C(=O)NC1CCN(S(=O)(=O)C3CC3)CC1)CC2` [Compound 102, N^5-(1-(Cyclopropylsulfonyl)piperidin-4-yl)-2-(3-fluorophenyl)-6,7-dihydropyrazolo[1,5-a]pyrazine-3,5(4H)-dicarboxamide] reads 0.01 to 10 nM; that for `N#Cc1ccc(NC(=O)N2Cc3c(C(N)=O)c(-c4ccc(F)c(Cl)c4)nn3[C@@H](C(F)F)C2)cc1F` [Compound A23, (R)-2-(3-Chloro-4-fluorophenyl)-N^5-(4-cyano-3-fluorophenyl)-7-(difluoromethyl)-6,7-dihydropyrazolo[1,5-a]pyrazine-3,5(4H)-dicarboxamide], 0.01 to 10 nM; that for `N#Cc1ccc(NC(=O)N2Cc3c(C(N)=O)c(-c4ccc(F)c(Cl)c4)nn3[C@H](C(F)F)C2)cc1Cl` [Compound A18, (S)—N^5-(3-Chloro-4-cyanophenyl)-2-(3-chloro-4-fluorophenyl)-7-(difluoromethyl)-6,7-dihydropyrazolo[1,5-a]pyrazine-3,5(4H)-dicarboxamide], 0.01 to 10 nM.

As a reminder, the IC50 is the concentration that inhibits the measured activity by half.
